Source: PMC10154249, “Unique progerin C-terminal peptide ameliorates Hutchinson–Gilford progeria syndrome phenotype by rescuing BUBR1” (Nature Aging, 2023)
Values joined by “and” are separate entries in the source; they are usually repeats but may differ in a detail not shown here. Equal values may be shown once.

Key:
IMR90 cells = assay: Etoposide-, Ras- and H2O2-induced early stage senescence of IMR90 cells; type: cell-based, human; details: IMR90, UPCP 6 μM, another 5 days; SA-β-gal, Ki67, Western blot
From the text: HGPS is an extremely rare congenital genetic disease, and its treatments are still under theoretical research. […] Also, to investigate the role of UPCP on other senescence models, we used Etoposide, Ras or H2O2 to induce senescence of IMR90 cells, and added UPCP to the cells treated with the drugs mentioned above when the cells just entered early stage senescence. […] Further work aimed at obtaining UPCPs with stronger stability, longer half-life and optimized physical structures are under planning. Therefore, UPCP may have broad application prospects in the treatment of HGPS.
SA-β-gal positive cells was calculated (c). Scale bars: 200 μm. d. Western blot analysis of Lamin B1, CyclinA2, IL-6 and p21 in senescent IMR90 cells with the indicated treatments. e,f.
Immunofluorescence analysis of Ki67 in IMR90 cells with the indicated treatment. Representative […]
≥ 200 cells. Scale bars: 50 μm. For bar and line graphs, data are presented as mean ± SD.
Statistical significance was determined in c and f using two-tailed unpaired Student’s t-test.
Supplementary Data Figure 2. UPCP delays Etoposide, Ras and H2O2 induced early stage cellular senescence. a. […]
and the percentage of the Ki67 positive cells was calculated (f), n ≥ 200 cells. […]
For bar and line graphs, data are presented as mean ± SD. Statistical significance was determined inc and f using two-tailed unpaired Student’s t-test.

Lmna^G609G/G609G mice = assay: Open field test; type: in vivo, mouse; details: for Distance: LmnaG609G/G609G-UPCP, one line per mouse
Procedure: (§1) For UPCP injection, 14-day-old Lmna^G609G/G609G mice were injected intraperitoneally with either PBS or UPCP (20 mg kg^–1, every other day) and wild-type mice were injected with PBS. All phenotypic analyses were performed after 12 weeks of treatment with UPCP. Bodyweight and lifespan were monitored after UPCP treatment. The survival rate was analyzed by the Kaplan–Meier method. We only included mice that were of sufficient bodyweight at the start of the experiment, typically at least 80% of the average littermate weight of the same sex and genotype. All animals meeting criteria for inclusion were then divided randomly into three groups according to genotype (Lmna^+/+, Lmna^G609G/G609G-Mock and Lmna^G609G/G609G-UPCP).
The mice were acclimated to the testing room for 2 h before the test. Before each individual trial, the testing apparatus was cleaned with 75% ethanol. Mice were placed individually in a random corner of the box (40 × 40 × 35 cm) facing the wall. Their movements, indicating locomotor activity, were recorded with a video camera for 20 min and were analyzed with Ethovision XT 10 (Noldus).

[1] = system: esophagus of Lmna^G609G/G609G mice; assay: Masson staining of esophagus (lamina propria); type: in vivo, mouse; details: 13 weeks; for aortic adventitia, mean / aortic adventitia: 20 mg kg^–1 i.p.
Procedure: as §1, with “All phenotypic analyses were performed after 12 weeks of treatment with UPCP.” left out
(§2) For histological analyses, mice of the indicated genotypes were perfused with PBS, then with 4% paraformaldehyde (PFA). Whole organs were incubated in 4% PFA at 4 °C for 16 h. All samples were paraffin embedded and sectioning by Servicebio. Subsequently, the tissues were deparaffinized and rehydrated before hematoxylin-eosin (HE) or Masson staining or immunohistochemistry (IHC). HE staining was performed using an HE Kit (Absin, catalog no. abs9217), and Masson staining was performed using Masson’s Trichrome Stain Kit (Absin, catalog no. abs9347) according to the manufacturer’s instructions. The thickness of the layers or the areas of fibrosis in the tissues were calculated using ImageJ software by a blinded investigator. For IHC, the sections were completed by the Servicebio. The images were acquired by a microscope (Leica DMi8) and analyzed with Leica Application Suite X v.3.6.0.24 (Leica). For BubR1, cytoplasmic staining in cells was scored on the intensity of staining and the proportion of positive cells by a blinded investigator. The intensity of the staining was graded as 0 (negative, no color), 1 (low positive, light yellow), 2 (positive, brown yellow) or 3 (high positive, brown), and the number of positive cells was graded as 0 (<5%), 1 (5–25%), 2 (25–50%), 3 (51–75%) or 4 (>75%). The final score was defined as staining number score multiplied by staining color score. For lamin B1, p21 or IL-6, the proportion of positive cells was used to quantify the expression of protein in tissues by a blinded investigator.

[2] = system: heart of Lmna^G609G/G609G mice; assay: Masson staining of heart (fibrosis); type: in vivo, mouse; details: 13 weeks
Procedure: as §1, with “All phenotypic analyses were performed after 12 weeks of treatment with UPCP.” left out
as §2

[3] = 20 mg kg^–1 i.p. every other day

H-YGRKKRRQRRRYNLRSRTVLCGTCGQPADKASASGSGAQSPQNCSIM-OH (cysteines drawn unpaired) [UPCP, unique progerin C-terminal peptide]
etoposide-, ras- and H2O2-induced early stage cellular senescence (IMR90 cells): delayed etoposide-, ras- and H2O2-induced early stage cellular senescence modestly
mobility (Lmna^G609G/G609G mice; 20 mg kg^–1 i.p. every other day, open field, 20 min): enhanced the mobility
Distance (Lmna^G609G/G609G mice; female mice, Fig. 6g): 3465.62 cm and 4842.39 cm and 4480.91 cm and 4399.08 cm and 3236.68 cm and 4440.93 cm
Distance (Lmna^G609G/G609G mice; male mice, Fig. 6h): 5127.23 cm and 4324.53 cm and 5298.93 cm and 5261.99 cm and 4436.52 cm and 3525.05 cm
fibrosis of lamina propria, esophagus [1, 3]: reduced fibrosis of lamina propria in the esophagus and heart
thickness of lamina propria, esophagus [1, 3]: decreased the thickness of the lamina propria in the esophagus
aortic adventitia, mean ([1]; sample 1, mean of 3 measurements): 9.139 μm
aortic adventitia ([1]; sample 1, measurement 1): 9.452 μm
aortic adventitia ([1]; sample 1, measurement 2): 8.478 μm
aortic adventitia ([1]; sample 1, measurement 3): 9.488 μm
aortic adventitia, mean ([1]; sample 2, mean of 3 measurements): 9.054 μm
aortic adventitia ([1]; sample 2, measurement 1): 9.392 μm
aortic adventitia ([1]; sample 2, measurement 2): 8.624 μm
aortic adventitia ([1]; sample 2, measurement 3): 9.147 μm
aortic adventitia, mean ([1]; sample 3, mean of 3 measurements): 10.936 μm
aortic adventitia ([1]; sample 3, measurement 1): 10.5409 μm
aortic adventitia ([1]; sample 3, measurement 2): 9.16 μm
aortic adventitia ([1]; sample 3, measurement 3): 13.1073 μm
fibrosis, heart [2, 3]: reduced fibrosis of lamina propria in the esophagus and heart
fibrosis area/ total area, heart ([2]; 20 mg kg^–1 i.p., replicate 1): 0.003612 and 0.3612%
fibrosis area, heart ([2]; 20 mg kg^–1 i.p., replicate 1, total area 1.938): 0.007
fibrosis area, heart ([2]; 20 mg kg^–1 i.p., replicate 2, total area 1.976): 0.002
fibrosis area, heart ([2]; 20 mg kg^–1 i.p., replicate 3, total area 2.43): 0.004
